Test results as given in ChEMBL document CHEMBL3758129, “Design, synthesis and anti-HIV evaluation of novel diarylpyridine derivatives targeting the entrance channel of NNRTI binding pocket” (Eur J Med Chem, 2016).
pEC50, pIC50: −log10 of the molar value.

How the values were obtained:
[1] = test system: Human immunodeficiency virus 1; experiment: Antiviral activity against wild type HIV1 3B infected in human MT4 cells assessed as reduction of virus-induced cytopathic effect after 5 days by MTT assay; type: functional, organism-based; conditions: Human immunodeficiency virus 1, 3B, MT4, 120 h
[2] = Cytotoxicity against human MT4 cells assessed as reduction in viability of mock infected cells after 5 days MTT assay; type: cell-based
[3] = test system: Human immunodeficiency virus 1; experiment: Antiviral activity against HIV1 3B expressing reverse transcriptase E138K mutant infected in human MT4 cells assessed as reduction of virus-induced cytopathic effect after 5 days by MTT assay; type: functional, organism-based; conditions: Human immunodeficiency virus 1, 3B, MT4, 120 h
[4] = test system: Human immunodeficiency virus 1; experiment: Antiviral activity against HIV1 3B expressing reverse transcriptase Y188L mutant infected in human MT4 cells assessed as reduction of virus-induced cytopathic effect after 5 days by MTT assay; type: functional, organism-based; conditions: Human immunodeficiency virus 1, 3B, MT4, 120 h
[5] = test system: Human immunodeficiency virus 1; experiment: Antiviral activity against HIV1 3B expressing reverse transcriptase L100I mutant infected in human MT4 cells assessed as reduction of virus-induced cytopathic effect after 5 days by MTT assay; type: functional, organism-based; conditions: Human immunodeficiency virus 1, 3B, MT4, 120 h
[6] = Selectivity index, ratio of CC50 for human MT4 cells to EC50 for wild type HIV1 3B infected in human MT4 cells; type: toxicity, cell-based; conditions: read-out: Ratio CC50/EC50
[7] = test system: Human immunodeficiency virus 1; experiment: Antiviral activity against HIV1 RES056 infected in human MT4 cells assessed as reduction of virus-induced cytopathic effect after 5 days by MTT assay; type: functional, organism-based; conditions: Human immunodeficiency virus 1, RES056, MT4, 120 h
[8] = Selectivity index, ratio of CC50 for human MT4 cells to EC50 for wild type HIV2 ROD infected in human MT4 cells; type: toxicity, cell-based; conditions: read-out: Ratio CC50/EC50
[9] = test system: Human immunodeficiency virus 1; experiment: Antiviral activity against HIV1 3B expressing reverse transcriptase K103N mutant infected in human MT4 cells assessed as reduction of virus-induced cytopathic effect after 5 days by MTT assay; type: functional, organism-based; conditions: Human immunodeficiency virus 1, 3B, MT4, 120 h
[10] = test system: Human immunodeficiency virus 1; experiment: Antiviral activity against HIV1 3B expressing reverse transcriptase Y181C mutant infected in human MT4 cells assessed as reduction of virus-induced cytopathic effect after 5 days by MTT assay; type: functional, organism-based; conditions: Human immunodeficiency virus 1, 3B, MT4, 120 h
[11] = test system: Human immunodeficiency virus 1; experiment: Antiviral activity against HIV1 […] expressing reverse transcriptase F227L/V106A double mutant infected in human MT4 cells assessed as reduction of virus-induced cytopathic effect after 5 days by MTT assay; type: functional, organism-based; conditions: Human immunodeficiency virus 1, MT4, 120 h
[12] = test system: Human immunodeficiency virus 2; experiment: Antiviral activity against wild type HIV2 ROD infected in human MT4 cells assessed as reduction of virus-induced cytopathic effect after 5 days by MTT assay; type: functional, organism-based; conditions: Human immunodeficiency virus 2, ISOLATE ROD, MT4, 120 h
[13] = target: Human immunodeficiency virus type 1 reverse transcriptase (Human immunodeficiency virus 1, UniProt Q72547); experiment: Inhibition of HIV1 reverse transcriptase assessed as reduction in biotin-dUTP incorporation using poly(rA)-oligo(dT) as template/primer and digoxigenin-dUTP/biotin-dUTP/dTTP nucleotides incubated for 1 hr by ELISA
[14] = test system: Human immunodeficiency virus 1; experiment: Potency index, ratio of nevirapine EC50 to compound EC50 for antiviral activity against HIV1 3B expressing reverse transcriptase K103N mutant infected in human MT4 cells; type: functional
[15] = test system: Human immunodeficiency virus 1; experiment: Potency index, ratio of efavirenz EC50 to compound EC50 for antiviral activity against HIV1 3B expressing reverse transcriptase K103N mutant infected in human MT4 cells; type: functional
[16] = test system: Human immunodeficiency virus 1; experiment: Potency index, ratio of delavirdine EC50 to compound EC50 for antiviral activity against HIV1 3B expressing reverse transcriptase K103N mutant infected in human MT4 cells; type: functional

Row | SMILES | pEC50 [1] | CC50 at 120 h [2] [nM] | pEC50 [3] | pEC50 [4] | pEC50 [5] | selectivity ratio [6] | pEC50 [7] | selectivity ratio [8] | pEC50 [9] | pEC50 [10] | pEC50 [11] | pEC50 [12] | pIC50 [13] | Ratio EC50 [14] | Ratio EC50 [15] | Ratio EC50 [16]
1 | Cc1cc(C)c(Oc2cc(NCCN3CCOCC3)nc(Nc3ccc(C#N)cc3)c2)c(C)c1 | 7.14 | 24300 | 5.34 | 5.02 | 5.24 | 339 | 5.08 | < 1 | 6.85 | 5.31 | 5.34 | < 4.95 | – | – | – | –
2 | COCCNc1cc(Oc2c(C)cc(C#N)cc2C)cc(Nc2ccc(C#N)cc2)n1 | 6.60 | ≥ 98500 | – | – | – | ≥ 394 | – | < 1 | – | – | – | < 4.39 | – | – | – | –
3 | Cc1cc(C#N)cc(C)c1Oc1cc(NCCN(C)C)nc(Nc2ccc(C#N)cc2)c1 | 7.39 | 4670 | – | – | – | 114 | – | < 1 | – | – | – | < 5.70 | 5.47 | – | – | –
4 | Cc1cc(C#N)cc(C)c1Oc1cc(NCC2CCCO2)nc(Nc2ccc(C#N)cc2)c1 (centres undefined) | 5.88 | > 285000 | – | – | – | > 216 | – | < 1 | – | – | – | < 3.90 | – | – | – | –
5 | Cc1cc(C)c(Oc2cc(Cl)nc(Nc3ccc(C#N)cc3)c2)c(C)c1 | 6.43 | 5590 | – | – | – | 15 | – | < 1 | – | – | – | < 5.69 | – | – | – | –
6 | Cc1cc(C)c(Oc2cc(NCCN(C)C)nc(Nc3ccc(C#N)cc3)c2)c(C)c1 | 7.37 | 4670 | – | – | – | 109 | – | < 1 | – | – | – | < 5.71 | – | – | – | –
7 | C=CCNc1cc(Oc2c(C)cc(C#N)cc2C)cc(Nc2ccc(C#N)cc2)n1 | 6.40 | 22200 | – | – | – | 55 | – | < 1 | – | – | – | < 5.06 | – | – | – | –
8 | Cc1cc(C#N)cc(C)c1Oc1cc(NCCN2CCNCC2)nc(Nc2ccc(C#N)cc2)c1 | 6.37 | 4430 | – | – | – | 10 | – | < 1 | – | – | – | < 5.68 | – | – | – | –
9 | COC(CNc1cc(Oc2c(C)cc(C#N)cc2C)cc(Nc2ccc(C#N)cc2)n1)OC | 6.08 | > 282000 | – | – | – | > 335 | – | < 1 | – | – | – | < 3.90 | – | – | – | –
10 | Cc1cc(C#N)cc(C)c1Oc1cc(NCCN2CCOCC2)nc(Nc2ccc(C#N)cc2)c1 | 7.09 | 37200 | 5.19 | 5.09 | 5.07 | 451 | 5.33 | < 1 | 7.31 | 5.12 | 5.22 | < 4.76 | – | 140 | 3 | 50
11 | O=C1Nc2ccc(Cl)cc2[C@@](C#CC2CC2)(C(F)(F)F)O1 [EFAVIRENZ] | – | – | – | 6.47 | 7.00 | – | – | – | – | 8.17 | 6.68 | – | – | – | – | –
12 | Cc1cc(C#N)cc(C)c1Oc1cc(NCCC#N)nc(Nc2ccc(C#N)cc2)c1 | 7.00 | 7850 | 6.03 | < 5.11 | 5.87 | 75 | 4.96 | < 1 | 6.74 | < 5.11 | < 5.11 | < 5.49 | – | – | – | –
13 | Cc1cc(C)c(Oc2cc(Nc3ccc(C#N)cc3)nc(NC3CC3)c2)c(C)c1 | 7.46 | 6710 | – | – | – | 190 | – | < 1 | – | – | – | < 5.59 | – | – | – | –
14 | C=CCNc1cc(Oc2c(C)cc(C)cc2C)cc(Nc2ccc(C#N)cc2)n1 | 6.15 | 24300 | – | – | – | 35 | – | < 1 | – | – | – | < 5.03 | – | – | – | –
15 | Cc1cc(C#N)cc(C)c1Oc1cc(Cl)nc(Nc2ccc(C#N)cc2)c1 | 6.08 | 22900 | – | – | – | 27 | – | < 1 | – | – | – | < 5.07 | – | – | – | –
16 | COCCNc1cc(Oc2c(C)cc(C)cc2C)cc(Nc2ccc(C#N)cc2)n1 | 6.06 | 56600 | – | – | – | 65 | – | < 1 | – | – | – | < 4.64 | – | – | – | –
17 | Cc1cc(C)c(Oc2cc(NCCN3CCNCC3)nc(Nc3ccc(C#N)cc3)c2)c(C)c1 | 6.15 | 3610 | – | – | – | 5 | – | < 1 | – | – | – | < 5.78 | – | – | – | –
18 | Cc1cc(C)c(Oc2cc(NCC3CC3)nc(Nc3ccc(C#N)cc3)c2)c(C)c1 | 5.70 | 32900 | – | – | – | 17 | – | < 1 | – | – | – | < 4.88 | – | – | – | –
19 | Cc1cc(C#N)cc(C)c1Oc1cc(NCC2CC2)nc(Nc2ccc(C#N)cc2)c1 | 5.82 | > 305000 | – | – | – | > 201 | – | < 1 | – | – | – | < 3.90 | – | – | – | –
20 | Cc1cc(C)c(Oc2cc(NCCC#N)nc(Nc3ccc(C#N)cc3)c2)c(C)c1 | 6.62 | 5300 | – | – | – | 22 | – | < 1 | – | – | – | < 5.68 | – | – | – | –
21 | Cc1ccnc2c1NC(=O)c1cccnc1N2C1CC1 [NEVIRAPINE] | 6.59 | – | – | 5.02 | 6.08 | – | – | – | – | – | – | – | – | – | – | –
22 | Cc1cc(C)c(Oc2cc(NCC3CCCO3)nc(Nc3ccc(C#N)cc3)c2)c(C)c1 (centres undefined) | 5.75 | > 292000 | – | – | – | > 163 | – | < 1 | – | – | – | < 3.90 | – | – | – | –
23 | Cc1cc(C#N)cc(C)c1Oc1cc(Nc2ccc(C#N)cc2)nc(NC2CC2)c1 | 6.66 | 10300 | – | – | – | 47 | – | < 1 | – | – | – | < 5.39 | – | – | – | –
24 | COC(CNc1cc(Oc2c(C)cc(C)cc2C)cc(Nc2ccc(C#N)cc2)n1)OC | 5.79 | 33500 | – | – | – | 21 | – | < 1 | – | – | – | < 4.84 | – | – | – | –
25 | Cc1cc(C#N)cc(C)c1Oc1nc(Nc2ccc(C#N)cc2)nc(N)c1Br [ETRAVIRINE] | 8.46 | – | – | 7.66 | 8.18 | – | – | – | 8.49 | – | – | – | – | – | – | –
26 | CC(C)Nc1cccnc1N1CCN(C(=O)c2cc3cc(NS(C)(=O)=O)ccc3[nH]2)CC1 [DELAVIRDINE] | 7.48 | – | 7.37 | 6.16 | 5.68 | 30.4 | – | 733 | 5.61 | 5.69 | 5.73 | – | – | – | – | –
27 | Cc1cn([C@H]2C[C@H](N=[N+]=[N-])[C@@H](CO)O2)c(=O)[nH]c1=O [ZIDOVUDINE] | 8.17 | – | 7.89 | 7.96 | 8.28 | > 7.06 | – | > 1050 | 8.08 | 8.15 | 8.32 | – | – | – | – | –
